Test results published in US8119808B2, “Tetrahydroquinoline derivatives as cannabinoid receptor modulators” (Bristol-Myers Squibb Company, priority 2003, dated 2012).

melting point: 174 to 175 °C
Compound: N#Cc1ccc2c(c1)C[C@H](NS(=O)(=O)c1ccccc1)CN2C(=O)c1ccccc1
